Data as given in patent publication US9486461B2, “Methods and compositions for inducing apoptosis by stimulating ER stress” (UNIVERSITY OF SOUTHERN CALIFORNIA, priority 2007, dated 2016).

What was measured:
U251 glioblastoma cells [1] = assay: Cell death ELISA, U251; type: cell-based, human; settings: U251, 48 hours, concentrations of up to 100 μmol/L
Protocol: (§1) U251 glioblastoma cells were treated with different drugs, and various parameters of cell growth and cell death were comparatively analyzed. As controls, cells remained either non-treated (Co) or were treated with the solvent DMSO alone. (FIG. 8A) Cells were treated with 30 or 50 μM DMC for 48 hours and the effects on cell growth/survival and on cell death were determined by various assays. […] Below the three panels, the expression levels of the ER stress indicators CHOP, GRP78, and caspase 4 at the end of the 48 hour drug treatment is shown, as determined by Western blot analysis with specific antibodies (actin served as a loading control. (FIG. 8B) Cells were treated with various concentrations of different drugs for 48 hours, as indicated, and cell death was measured with the cell death ELISA kit. (FIG. 8C) Cells were treated with DMC or various coxibs and traditional NSAIDs for 48 hours, as indicated, and cell growth and survival was determined with the conventional MTT assay (control, non-treated cells were set at 100%). MTT assays were performed in 96-well plates with the use of 3.0-8.0×10^3 cells per well as described in detail elsewhere (34). In parallel, the expression levels of CHOP and GRP78 protein were determined by Western blot analysis.
Apoptosis in cell cultures in vitro was determined by using the Cell Death Detection ELISA kit (Roche Diagnostics, Indianapolis, Ind.) according to the manufacturer's instructions. This immunoassay specifically detects the histone region (H1, H2A, H2B, H3, and H4) of mononucleosomes and oligonucleosomes that are released during apoptosis. Ninety-six-well plates were seeded with 1,000 cells per well and read at 405 nm in a Microplate Autoreader (Model EL 311 SX; Bio-Tek Instruments, Inc., Winooski, Vt.).

U87 glioblastoma tumors = assay: Tumor growth in xenograft nude mouse model; type: in vivo, nude mice; settings: daily chow for DMC, 40 mg/kg for rofecoxib, n=5
Protocol: Once palpable tumors had formed, the animals received daily chow supplemented with DMC, rofecoxib, or no drug. Tumor size was determined every three days. Shown is the average (mean±SD) tumor volume in each group (n=5). Asterisks (**): p<0.01 between control and DMC-treated animals on day 42.

[2] = test system: Tumor-associated Brain Endothelial Cells (TuBEC); assay: Trypan blue exclusion, tumor-associated brain endothelial cells; type: cell-based; settings: TMZ 300 uM and 20 uM DMC, 48 hours, then 12 days without drug
Protocol: After drug treatment the cells were incubated for another 12 days in the absence of drug, in order to determine their long-term survival; at that time cytotoxicity was evaluated using the trypan blue exclusion technique. Results are presented as number of viable cells per group.
Tumor-associated Brain Endothelial Cells (TuBEC) were treated with TMZ (300 uM) and 20 uM DMC for 48 hours. The drugs were removed and cells were incubated for another 12 days; at that time cytotoxicity was evaluated using the trypan blue exclusion technique. Results are presented as number of viable cells per group.

[3] = test system: CHOP protein in U87 glioblastoma tumor tissue; settings: shown previously (ref. 39); cited from earlier work
U251 glioblastoma cells [4] = assay: Colony forming assay, U251; type: cell-based, human; settings: U251, 30 and 50 μmol/L, 48 hours
Protocol: as §1, with “MTT assays were performed in 96-well plates with the use of 3.0-8.0×10^3 cells per well as described in detail elsewhere (34).” left out
Twenty-four hours after transfection with small interfering RNA (siRNA), the cells were seeded into six-well plates at 200 cells per well. […] Colonies were visualized by staining for 4 h with 1% methylene blue (in methanol) and then counted.

U251 glioblastoma cells [5] = assay: TUNEL assay in cell culture, U251; type: cell-based, human; settings: U251, 30 and 50 μmol/L, 48 hours
Protocol: as §1
We next investigated the relationship of ER stress induction and cell death. […]

[6] = test system: CHOP, GRP78, caspase 4 in U251 glioblastoma cells; assay: Western blot of ER stress indicators in U251 cells; type: cell-based, human; settings: U251, 30 and 50 μmol/L, 48 hours
U251 glioblastoma cells [7] = assay: Colony formation assay after siRNA transfection, U251; type: cell-based, human; settings: 48 h
Protocol: U251 glioblastoma cells were transiently transfected with si-RNA directed at GRP78 (si-GRP78) or caspase 4 (si-Casp 4). As a control, an siRNA targeted at green fluorescent protein (si-GFP) was used. […] After 48 hours of drug treatment, the drugs were removed and the fraction of surviving cells was determined by colony forming assays. Shown is the percentage of surviving cells (where the number of colonies under non-drug treated conditions was set to 100%). […] (B) In order to verify the effectiveness of the si-RNAs, Western blot analysis of the target proteins was performed. Note that the knock-down of GRP78 leads to increased levels of CHOP protein, as expected from the model of ER stress, where GRP78 signaling is upstream of CHOP.
U251 cells were transiently transfected with si-RNA directed at GRP78 (si-GRP78). As a control, an siRNA targeted at green fluorescent protein (si-GFP) was used. […] In parallel, transfected control cultures received no drug treatment or treatment with solvent (DMSO) alone. After 48 hours, the drugs were removed and the fraction of surviving cells was determined by colony forming assays over the course of 12-14 days. […]
Twenty-four hours after transfection with small interfering RNA (siRNA), the cells were seeded into six-well plates at 200 cells per well. […] Colonies were visualized by staining for 4 h with 1% methylene blue (in methanol) and then counted. […]

| Compound | induction of cell death/apoptosis (cell death ELISA) (U251 glioblastoma cells [1]) | tumor growth on longer-term therapy (U87 glioblastoma tumors) | susceptibility of tumor vascular endothelial cells to TMZ [2] | dosage at which ER stress in tumor tissue in vivo begins to appear [3] [mg/kg] | survival in colony-forming assays (U251 glioblastoma cells [4]) | apoptosis (TUNEL) (U251 glioblastoma cells [5]) | stimulation of the ESR (CHOP, GRP78, caspase-4 cleavage) [6] | cell survival when GRP78 levels were reduced by siRNA (vs si-GFP) (U251 glioblastoma cells [7]; U251, 40 μM Cxb or 30 μM DMC) | cell survival when caspase-4 expression was diminished by siRNA (vs si-GFP) (U251 glioblastoma cells [7]; U251, 60 μM Cxb or 40 μM DMC) |
| --- | --- | --- | --- | --- | --- | --- | --- | --- | --- |
| Cc1ccc(-c2cc(C(F)(F)F)nn2-c2ccc(S(N)(=O)=O)cc2)cc1 [celecoxib, 4-[5-(4-methylphenyl)-3-(trifluoromethyl)-1H-pyrazol-1-yl]benzenesulfonamide] | able to induce cell death/apoptosis |  |  |  |  |  |  |  |  |
| Cc1ccc(C)c(-c2cc(C(F)(F)F)nn2-c2ccc(S(N)(=O)=O)cc2)c1 [DMC, 4-[5-(2,5-dimethylphenyl)-3-(trifluoromethyl)-1H-pyrazol-1-yl]benzenesulfonamide] |  | significantly reduced tumor growth | increased the susceptibility | > 10 | greatly reduced survival | substantially increased apoptosis | potently stimulated the ESR | less cell survival | increased |
